pIC50: −log10 of the molar value.
The compounds below were run against T1, ML1a human melatonin receptor (Homo sapiens, UniProt P48039) (assay: Melatonergic receptor binding (2-[125I]-iodomelatonin, membranes of NIH-3T3 cells expressing ML1a receptor)). Conditions: 37° C. for 1 hour, read-out: Melatonin Binding Affinity (IC50).
T1 construct: expressed in transfected cells
Description: Melatonergic Receptor Binding Activity
(a) TME=50 mM Tris buffer containing 12.5 mM MgCl2, and 2 mM EDTA, pH 7.4 at 37° C. with concentrated HCl.
(b) Wash buffer: 20 mM Tris base containing 2 mM MgCl2, pH 7.4 at room temperature.
(c) 10^-4 M melatonin (10^-5 M final concentration).
(d) 2-[^125 I]-iodomelatonin, 0.1 M final concentration
The melatonin ML1a receptor cDNA was subcloned into pcDNA3 and introduced into NIH-3T3 cells using Lipofectamine. Transformed NIH-3T3 cells resistant to geneticin (G-418) were isolated, and single colonies expressing high levels of 2[^125 I]-iodomelatonin binding were isolated. Cells are maintained in DMEM supplemented with 10% calf serum and G-418 (0.5 g/liter). Cells are grown to confluency in T-175 flasks, scraped using Hank's balanced salt solution, and frozen at -80° C. For preparing membrane homogenates, pellets are thawed on ice, and resuspended in TME buffer in the presence of 10 μg/ml aprotinin and leupeptin, and 100 μM phenylmethylsulfonylfluoride. The cells were then homogenized using a dounce homogenizer, and centrifuged. The resulting pellet was resuspended with dounce homogenizer in TME (supplemented with the above protease inhibitors) and frozen. On the day of assay, the small aliquot was thawed on ice and resuspended in ice cold TME (1:50-1:100 v/v) and held on ice until assayed.
3. Incubation: 37° C. for 1 hour. Reaction is terminated by filtration. Filters are washed 3 times.
^a = (IC50) values for ML1a human melatonin receptor binding

T1 sequence (P48039 whole entry): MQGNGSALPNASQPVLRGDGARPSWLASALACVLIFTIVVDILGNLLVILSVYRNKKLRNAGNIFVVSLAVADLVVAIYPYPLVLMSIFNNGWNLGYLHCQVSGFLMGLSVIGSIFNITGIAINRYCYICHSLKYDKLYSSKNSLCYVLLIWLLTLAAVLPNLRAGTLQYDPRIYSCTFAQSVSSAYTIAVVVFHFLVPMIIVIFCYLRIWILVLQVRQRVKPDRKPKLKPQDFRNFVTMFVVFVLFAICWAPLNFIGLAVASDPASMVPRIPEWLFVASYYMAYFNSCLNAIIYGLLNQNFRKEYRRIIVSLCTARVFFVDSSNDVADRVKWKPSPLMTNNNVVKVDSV

| SMILES | pIC50 |
| --- | --- |
| CCCC(=O)NC[C@@H]1C[C@@H]1c1cccc2c1CCO2 (relative stereo) [Example 4, (cis)-N-[[2-(2,3-Dihydrobenzofuran-4-yl)cycloprop-1-yl]methyl]butyramide] | > 7.30 |
| CC(=O)NC[C@@H]1C[C@@H]1c1cccc2c1CCO2 (relative stereo) [Example 2, (cis)-N-[[2-(2,3-Dihydrobenzofuran-4-yl)cycloprop-1-yl]methyl]acetamide] | 6.70 to 7.30 |
| CC(C)C(=O)NC[C@H]1C[C@H]1c1cccc2c1CCO2 (relative stereo) [Example 5, (cis)-N-[[2-(2,3-Dihydrobenzofuran-4-yl)cycloprop-1-yl]methyl]-2-methyl propanamide] | > 7.30 |
| O=C(NC[C@@H]1C[C@@H]1c1cccc2c1CCO2)C1CC1 (relative stereo) [Example 3, (cis)-N-[[2-(2,3-Dihydrobenzofuran-4-yl)cycloprop-1-yl]methyl]cyclopropane carboxamide] | > 7.30 |
| CCC(=O)NC[C@@H]1C[C@@H]1c1cccc2c1CCO2 (relative stereo) [Example 1, (cis)-N-[[2-(2,3-Dihydrobenzofuran-4-yl)cycloprop-1-yl]methyl]propanamide] | > 7.30 |

— patent publication US6214869A, “Heterocyclic cis cyclopropane derivatives as melatonergic agents” (Bristol-Myers Squibb, priority 1999, dated 2001)
